Results reported in patent publication US4435393A, “Derivatives of 10-(1-azabicyclo[2.2.2]oct-3-yl)-N,N dimethyl-10H-phenothiazine-2-sulfonamide as medicaments” (Pharmindustrie, priority 1981, dated 1984).
Like-named read-outs stand apart in the source and are kept apart here.

Test system: gastric hypersecretion stimulated by pentagastrine
Assay: antisecretory activity on gastric hypersecretion stimulated by pentagastrine in dogs wearing a Heidenhain pouch
Assay type: in vivo, dog (mongrel)
Settings: for ED50: Canis lupus familiaris, read-out: ED 50 (dose which reduced by 50% the hourly acid flow)
Procedure: Three mongrel dogs wearing Heidenhain pouches and which were kept without food for 18 hours received a venous perfusion of […] of pentagastrine per hour in a volume of 30 mls per hour for 4 hours. The secretion from the pouch was collected in a flask which was changed every 15 minutes. An hour and a half after the beginning of the perfusion process, the product to be examined was administered orally in a No. 000 gelatin coated pill. […] The doses are expressed in the product in the base form.

[1] = oral, Heidenhain pouch dogs, pentagastrine perfusion, acid flow at 3rd or 4th hour vs second hour, doses expressed as base

SMILES: CN(C)S(=O)(=O)c1ccc2c(c1)N(C1CN3CCC1CC3)c1ccccc1[S+]2[O-] (single isomer, unassigned) [Example 2, 10-(1-azabicyclo[2.2.2]oct-3-yl)-N,N dimethyl-10H-phenothiazine-2-sulfonamide S-oxide]
- ED50 [1]: 2.5 mg/kg
- inhibition of gastric secretion relative to Cimetidine (oral, Heidenhain pouch dogs): as active as Cimetidine

SMILES: CN/C(=N/CCSCc1nc[nH]c1C)NC#N [Cimetidine, reference compound]
- ED50 (po): 2.3 mg/kg

SMILES: CN(C)S(=O)(=O)c1ccc2c(c1)N(C1CN3CCC1CC3)c1ccccc1[S+]2[O-] (stereo not drawn) [Example 1, 10-(1-azabicyclo[2.2.2]oct-3-yl)-N,N dimethyl-10H-phenothiaxine-2-sulfonamide S-oxide]
- ED50 [1]: 2.3 mg/kg
- inhibition of gastric secretion relative to Cimetidine (oral, Heidenhain pouch dogs): as active as Cimetidine

SMILES: CN(C)S(=O)(=O)c1ccc2c(c1)N(C1CN3CCC1CC3)c1ccccc1S2(=O)=O (stereo not drawn) [Example 3, 10-(1-azabicyclo[2.2.2]oct-3-yl)-N,N dimethyl-10H-phenothiazine-2 sulfonamide S-dioxide]
- ED50 [1]: 10 mg/kg
